Test results reported in US7998903B2, “Glycerol-modified silicone spreading agent and a composition comprising the same” (Shin-Etsu Chemical Co., Ltd., priority 2004, dated 2011).

Experiments:
[1] = Surface tension of silicone/oil agent mixtures, automatic tensiometer, 25 degrees C.; assay type: physicochemical; settings: for Surface Tension, glycerol-modified silicone/oil agent = 10/90, Liquid paraffin / Surface Tension, glycerol-modified silicone/oil agent = 10/90, Rapeseed oil / Surface Tension, glycerol-modified silicone/oil agent = 10/90, Soybean oil: 25 C.; for Surface Tension, glycerol-modified silicone/oil agent = 10/90, Liquid paraffin: silicone/liquid paraffin = 10/90, neat liquid paraffin 27.9; for Surface Tension, glycerol-modified silicone/oil agent = 10/90, Rapeseed oil: silicone/rapeseed oil = 10/90, neat rapeseed oil 31; for Surface Tension, glycerol-modified silicone/oil agent = 10/90, Soybean oil: silicone/soybean oil = 10/90, neat soybean oil 31.8; for Surface tension, amount added 1 wt % / Surface tension, amount added 5 wt % / Surface tension, amount added 10 wt % / Surface tension, amount added 15 wt %: Table 5, oil agent not named; for Surface tension, amount added 1 wt %: 1 wt % silicone; for Surface tension, amount added 5 wt %: 5 wt % silicone; for Surface tension, amount added 10 wt %: 10 wt % silicone; for Surface tension, amount added 15 wt %: 15 wt % silicone
Procedure: (§1) The present invention will be explained in detail with reference to the following Examples, but not limited to them. In the Examples, surface tension was measured with a full automatic tensiometer, model PD-W, ex Kyowa Interface Science Co. Ltd., at 25 degrees C. according to the water drop method in which a contact angle with the air is measured. A surface tension of dimethylpolysiloxane having a viscosity of 30 mm^2/s at 25 degrees C. measured according to this method was 18.2 mN/m. In the tables shown below, “D” and “I” each represents a degree of solubility: “D” means “dispersed” and “I” means “insoluble.” A silicone with no mark means that it dissolved to form a transparent solution.
(§2) Some properties and solubility in oil agents were determined with each of the glycerol-modified silicone prepared in Examples 1 to 5. Surface tension of the mixtures of the silicone and the oil agent were measured, too.
Silicones modified with compounds other than glycerol were prepared. Mixtures with the oil agents were prepared and surface tension thereof was measured as in Examples.
Compositions were prepared containing an oil agent and the glycerol-modified silicone in a weight ratio of 90/10 and surface tension thereof was measured.
Silicones without having a glycerol residue and silicones having a structure other than, A-B-A, were prepared and subjected to the measurements as in Examples. Mixtures with the oil agents were prepared each of which surface tension was measured as in Examples.

[2] = Degree of solubility (miscibility) of the silicone in oil agents; assay type: physicochemical; parameters: key: “D” means “dispersed”; “I” means “insoluble.”; A silicone with no mark means that it dissolved to form a transparent solution
Procedure: as §1, §2

[3] = system: leaf of Citrus Natsudaidai; experiment: Spreading of one drop of liquid paraffin containing silicone on a leaf (FIGS. 1 & 2); settings: 15 μl drop of liquid paraffin containing 10 wt % silicone; 5 minutes after placing
Procedure: FIGS. 1 & 2 are photographs each taken 5 minutes after one drop, i.e., 15 μl, of liquid paraffin containing 10 wt % of the silicone of Example 2 and Comparative Example 6, respectively, was placed on a leaf of Citrus Natsudaidai. […] Comparing the figures, the liquid paraffin containing the glycerol-modified silicone in Example 2 has better spreading property than the silicone modified with n-octene.

SMILES	Surface Tension, glycerol-modified silicone/oil agent = 10/90, Liquid paraffin [1] [mN/m]	Surface Tension, glycerol-modified silicone/oil agent = 10/90, Rapeseed oil [1] [mN/m]	Surface Tension, glycerol-modified silicone/oil agent = 10/90, Soybean oil [1] [mN/m]	Surface tension, amount added 1 wt % [1] [mN/m]	Surface tension, amount added 5 wt % [1] [mN/m]	Surface tension, amount added 10 wt % [1] [mN/m]	Surface tension, amount added 15 wt % [1] [mN/m]	other results
CCC(CO)(CO)COCCC[Si](C)(C)O[Si](C)(C)C [compound 14]	23	26.9	27.5	–	–	–	–	–
C[Si](C)(CCCOCC(O)CO)O[Si](C)(C)CCCOCC(O)CO (stereo not shown) [Comparative Example 1]	–	–	–	–	–	–	–	Miscibility, glycerol-modified silicone/oil agent = 10/90, Liquid paraffin ([2]; silicone/liquid paraffin = 10/90): (I); Miscibility, glycerol-modified silicone/oil agent = 10/90, Rapeseed oil ([2]; silicone/rapeseed oil = 10/90): (I); Miscibility, glycerol-modified silicone/oil agent = 10/90, Soybean oil ([2]; silicone/soybean oil = 10/90): (I)
C[Si](C)(C)O[Si](C)(C)CCCOCC(O)CO (stereo not shown) [Example 1]	21.3	22.6	21.9	–	–	–	–	–
CC(CCO)C[Si](C)(O[Si](C)(C)C)O[Si](C)(C)C (stereo not shown) [compound 11]	23.7	24.9	24.3	27	24.4	23.7	23.7	–
CCCCCCCCCCCC[Si](C)(O[Si](C)(C)C)O[Si](C)(C)C [compound 7]	26.3	–	–	–	–	–	–	–
CCCCCCCC[Si](C)(C)O[Si](C)(C)O[Si](C)(C)C [compound 8]	25	–	–	–	–	–	–	–
C[Si](C)(C)O[Si](C)(CCCCCO)O[Si](C)(C)C [compound 10]	25.4	–	–	26.6	25	25.4	22.7	–
CCC(CO)(CO)COCCC[Si](C)(O[Si](C)(C)C)O[Si](C)(C)C [compound 15]	22.1	25.3	26	–	–	–	–	–
CCCCCCCC[Si](C)(O[Si](C)(C)C)O[Si](C)(C)C [Comparative Example 6]	25.5	24.5	24.9	27.4	25.3	25.5	24.4	spreading of a drop on a leaf [3]: remained as a small circle
